Test results reported in ChEMBL document CHEMBL5620353, “Novel antifungal triazoles with alkynyl-methoxyl side chains: Design, synthesis, and biological activity evaluation” (Eur J Med Chem, 2023).
Values after ≈ are worked out from the molar mass of the structure shown.

Tests used:
Format in all cases: functional
[1] = system: Saccharomyces cerevisiae; test: Antifungal activity against recombinant Saccharomyces cerevisiae Y570 overexpressing CaCdr1 assessed as inhibition of fungal growth incubated for 48 hrs by microbroth dilution method
[2] = system: Saccharomyces cerevisiae; test: Antifungal activity against recombinant Saccharomyces cerevisiae Y2411 overexpressing ScErg11 assessed as inhibition of fungal growth incubated for 48 hrs by microbroth dilution method
[3] = system: Saccharomyces cerevisiae; test: Antifungal activity against recombinant Saccharomyces cerevisiae Y2374 overexpressing CgErg11 assessed as inhibition of fungal growth incubated for 48 hrs by microbroth dilution method
[4] = system: Saccharomyces cerevisiae; test: Antifungal activity against recombinant Saccharomyces cerevisiae Y2300 overexpressing ScErg11 assessed as inhibition of fungal growth incubated for 48 hrs by microbroth dilution method
[5] = system: Saccharomyces cerevisiae; test: Antifungal activity against recombinant Saccharomyces cerevisiae Y2459 overexpressing CaErg11 CaCpr assessed as inhibition of fungal growth incubated for 48 hrs by microbroth dilution method
[6] = system: Saccharomyces cerevisiae; test: Antifungal activity against recombinant Saccharomyces cerevisiae Y2301 overexpressing ScErg11 Y140F assessed as inhibition of fungal growth incubated for 48 hrs by microbroth dilution method
[7] = system: Saccharomyces cerevisiae; test: Antifungal activity against recombinant Saccharomyces cerevisiae Y2716 overexpressing CpErg11 Y132F CpCpr assessed as inhibition of fungal growth incubated for 48 hrs by microbroth dilution method
[8] = system: Saccharomyces cerevisiae; test: Antifungal activity against recombinant Saccharomyces cerevisiae Y525 overexpressing CaMdr1 assessed as inhibition of fungal growth incubated for 48 hrs by microbroth dilution method
[9] = system: Saccharomyces cerevisiae; test: Antifungal activity against recombinant Saccharomyces cerevisiae Y2513 overexpressing ScErg11 Y140H assessed as inhibition of fungal growth incubated for 48 hrs by microbroth dilution method
[10] = system: Saccharomyces cerevisiae; test: Antifungal activity against recombinant Saccharomyces cerevisiae Y2721 overexpressing CpErg11 CpCpr assessed as inhibition of fungal growth incubated for 48 hrs by microbroth dilution method
[11] = system: Saccharomyces cerevisiae; test: Antifungal activity against recombinant Saccharomyces cerevisiae Y2462 overexpressing ScErg11 ScNcp1 assessed as inhibition of fungal growth incubated for 48 hrs by microbroth dilution method
[12] = system: Nakaseomyces glabratus; test: Antifungal activity against Candida glabrata 537 assessed as inhibition of fungal growth incubated for 48 hrs by microbroth dilution method
[13] = system: Pichia kudriavzevii; test: Antifungal activity against Candida krusei 4996 assessed as inhibition of fungal growth incubated for 48 hrs by microbroth dilution method
[14] = system: Cryptococcus neoformans; test: Antifungal activity against Cryptococcus neoformans 32,609 assessed as inhibition of fungal growth incubated for 72 hrs by microbroth dilution method
[15] = system: Aspergillus fumigatus; test: Antifungal activity against Aspergillus fumigatus 7544 assessed as inhibition of fungal growth incubated for 72 hrs by microbroth dilution method
[16] = system: Candida albicans; test: Antifungal activity against Candida albicans 10231 assessed as inhibition of fungal growth incubated for 48 hrs by microbroth dilution method
[17] = system: Candida albicans; test: Antifungal activity against Candida albicans SC5314 assessed as inhibition of fungal growth incubated for 48 hrs by microbroth dilution method
[18] = system: Candida tropicalis; test: Antifungal activity against Candida tropicalis 8915 assessed as inhibition of fungal growth incubated for 48 hrs by microbroth dilution method
[19] = system: Candida parapsilosis; test: Antifungal activity against Candida parapsilosis 22019 assessed as inhibition of fungal growth incubated for 48 hrs by microbroth dilution method; details: Lodderomyces parapsilosis
[20] = system: Candida albicans; test: Antifungal activity against fluconazole-resistant Candida albicans 904 assessed as inhibition of fungal growth incubated for 48 hrs by microbroth dilution method
[21] = system: [Candida] auris; test: Antifungal activity against fluconazole-resistant Candida auris 919 assessed as inhibition of fungal growth incubated for 48 hrs by microbroth dilution method; details: Candidozyma auris
[22] = system: [Candida] auris; test: Antifungal activity against fluconazole-resistant Candida auris 918 assessed as inhibition of fungal growth incubated for 48 hrs by microbroth dilution method; details: Candidozyma auris
[23] = system: Candida albicans; test: Antifungal activity against fluconazole-resistant Candida albicans 901 assessed as inhibition of fungal growth incubated for 48 hrs by microbroth dilution method
[24] = system: Nakaseomyces glabratus; test: Potency index, ratio of fluconazole MIC to test compound MIC for antifungal activity against Candida glabrata 537 assessed as inhibition of fungal growth incubated for 48 hrs by microbroth dilution method
[25] = system: [Candida] auris; test: Antifungal activity against fluconazole-resistant Candida auris 891 assessed as inhibition of fungal growth incubated for 48 hrs by microbroth dilution method; details: Candidozyma auris

For `CC[C@@H]([C@H](C)O)n1ncn(-c2ccc(N3CCN(c4ccc(OC[C@@H]5CO[C@@](Cn6cncn6)(c6ccc(F)cc6F)C5)cc4)CC3)cc2)c1=O` [POSACONAZOLE], the MIC [1] was 16 µg/mL, the MIC [2] was 0.5 µg/mL and the MIC [3] was 1 µg/mL. For the same molecule, the MIC [4] was 2 µg/mL, the MIC [5] was 2 µg/mL and the MIC [6] was 2 µg/mL. For the same molecule, the MIC [7] was 1 µg/mL, the MIC [8] was 1 µg/mL and the MIC [9] was 1 µg/mL. For the same molecule, the MIC [10] was 1 µg/mL and the MIC [11] was 2 µg/mL.

`Cc1cccc(C#CCO[C@H](C)[C@](O)(Cn2cncn2)c2ccc(F)cc2F)c1` was tested, and the MIC [12] was 0.25 µg/mL (≈ 0.629 µM), the MIC [13] was 32 µg/mL (≈ 80.5 µM) and the MIC [14] was 4 µg/mL (≈ 10.1 µM). The MIC [15] was 1 µg/mL (≈ 2.52 µM), the MIC [16] was 8 µg/mL (≈ 20.1 µM) and the MIC [17] was 0.5 µg/mL (≈ 1.26 µM). The MIC [18] was 64 µg/mL (≈ 161 µM) and the MIC [19] was 0.5 µg/mL (≈ 1.26 µM).

Work on `Cc1ccccc1C#CCO[C@H](C)[C@](O)(Cn1cncn1)c1ccc(F)cc1F` yielded an MIC [12] of 0.25 µg/mL (≈ 0.629 µM), an MIC [13] of 16 µg/mL (≈ 40.3 µM) and an MIC [14] of 1 µg/mL (≈ 2.52 µM). The MIC [15] was 4 µg/mL (≈ 10.1 µM), the MIC [16] was 8 µg/mL (≈ 20.1 µM) and the MIC [17] was 0.25 µg/mL (≈ 0.629 µM). It also gave an MIC [18] of 32 µg/mL (≈ 80.5 µM) and an MIC [19] of 4 µg/mL (≈ 10.1 µM).

Work on `C[C@@H](OCC#Cc1cccc(Cl)c1)[C@](O)(Cn1cncn1)c1ccc(F)cc1F` yielded an MIC [12] of 0.5 µg/mL (≈ 1.2 µM), an MIC [13] of 32 µg/mL (≈ 76.6 µM) and an MIC [14] of 2 µg/mL (≈ 4.79 µM). The MIC [15] was 2 µg/mL (≈ 4.79 µM), the MIC [16] was 32 µg/mL (≈ 76.6 µM) and the MIC [17] was 0.5 µg/mL (≈ 1.2 µM). For the same molecule, the MIC [18] was 32 µg/mL (≈ 76.6 µM) and the MIC [19] was 2 µg/mL (≈ 4.79 µM).

`C[C@@H](OCC#Cc1c(Cl)cccc1Cl)[C@](O)(Cn1cncn1)c1ccc(F)cc1F` was tested, and the MIC [12] was 0.25 µg/mL (≈ 0.553 µM), the MIC [13] was 16 µg/mL (≈ 35.4 µM) and the MIC [14] was at most 0.125 µg/mL. It also gave an MIC [15] of 4 µg/mL (≈ 8.84 µM), an MIC [16] of over 64 µg/mL and an MIC [17] of 0.25 µg/mL (≈ 0.553 µM). For the same molecule, the MIC [18] was over 64 µg/mL and the MIC [19] was 4 µg/mL (≈ 8.84 µM).

Molecule `C[C@@H](OCC#Cc1ccc(F)cc1)[C@](O)(Cn1cncn1)c1ccc(F)cc1F` has an MIC [12] of at most 0.125 µg/mL, an MIC [13] of 8 µg/mL (≈ 19.9 µM) and an MIC [20] of 32 µg/mL (≈ 79.7 µM). The MIC [21] was 16 µg/mL (≈ 39.9 µM), the MIC [14] was 0.5 µg/mL (≈ 1.25 µM) and the MIC [22] was 16 µg/mL (≈ 39.9 µM). For the same molecule, the MIC [15] was 1 µg/mL (≈ 2.49 µM), the MIC [16] was 8 µg/mL (≈ 19.9 µM) and the MIC [17] was at most 0.125 µg/mL. The MIC [23] was 64 µg/mL (≈ 159 µM), the Ratio [24] was “>=8” and the MIC [18] was 64 µg/mL (≈ 159 µM). It also gave an MIC [19] of 1 µg/mL (≈ 2.49 µM) and an MIC [25] of 16 µg/mL (≈ 39.9 µM).

`C[C@@H](OCC#Cc1c(F)cccc1F)[C@](O)(Cn1cncn1)c1ccc(F)cc1F` was tested, and the MIC [12] was 0.25 µg/mL (≈ 0.596 µM), the MIC [13] was 4 µg/mL (≈ 9.54 µM) and the MIC [14] was at most 0.125 µg/mL. The MIC [15] was 1 µg/mL (≈ 2.38 µM), the MIC [16] was 16 µg/mL (≈ 38.2 µM) and the MIC [17] was at most 0.125 µg/mL. The MIC [18] was 64 µg/mL (≈ 153 µM) and the MIC [19] was 0.5 µg/mL (≈ 1.19 µM).

Molecule `C[C@@H](OCC#Cc1c(F)cc(F)cc1F)[C@](O)(Cn1cncn1)c1ccc(F)cc1F` has an MIC [12] of at most 0.125 µg/mL, an MIC [13] of 8 µg/mL (≈ 18.3 µM) and an MIC [14] of 0.5 µg/mL (≈ 1.14 µM). The MIC [15] was 4 µg/mL (≈ 9.15 µM), the MIC [16] was over 64 µg/mL and the MIC [17] was at most 0.125 µg/mL. The Ratio [24] was “>=8”, the MIC [18] was 64 µg/mL (≈ 146 µM) and the MIC [19] was 2 µg/mL (≈ 4.57 µM).

For `C[C@@H](OCC#Cc1cc(F)ccc1F)[C@](O)(Cn1cncn1)c1ccc(F)cc1F`, the MIC [12] was at most 0.125 µg/mL, the MIC [13] was 8 µg/mL (≈ 19.1 µM) and the MIC [14] was 1 µg/mL (≈ 2.38 µM). The MIC [15] was 2 µg/mL (≈ 4.77 µM), the MIC [16] was 8 µg/mL (≈ 19.1 µM) and the MIC [17] was at most 0.125 µg/mL. For the same molecule, the Ratio [24] was “>=8”, the MIC [18] was 8 µg/mL (≈ 19.1 µM) and the MIC [19] was 2 µg/mL (≈ 4.77 µM).

In the case of `C[C@@H](OCC#Cc1ccccn1)[C@](O)(Cn1cncn1)c1ccc(F)cc1F`, the MIC [12] is reported as at most 0.125 µg/mL, the MIC [13] is reported as 16 µg/mL (≈ 41.6 µM) and the MIC [14] is reported as 0.5 µg/mL (≈ 1.3 µM). It also gave an MIC [15] of 8 µg/mL (≈ 20.8 µM), an MIC [16] of 32 µg/mL (≈ 83.2 µM) and an MIC [17] of at most 0.125 µg/mL. The Ratio [24] was “>=8”, the MIC [18] was over 64 µg/mL and the MIC [19] was 0.5 µg/mL (≈ 1.3 µM).

Work on `C[C@@H](OCC#Cc1ccc(Cl)cc1Cl)[C@](O)(Cn1cncn1)c1ccc(F)cc1F` yielded an MIC [12] of 0.25 µg/mL (≈ 0.553 µM), an MIC [13] of 32 µg/mL (≈ 70.8 µM) and an MIC [20] of 32 µg/mL (≈ 70.8 µM). For the same molecule, the MIC [21] was 8 µg/mL (≈ 17.7 µM), the MIC [14] was 2 µg/mL (≈ 4.42 µM) and the MIC [22] was 16 µg/mL (≈ 35.4 µM). For the same molecule, the MIC [15] was 4 µg/mL (≈ 8.84 µM), the MIC [16] was 32 µg/mL (≈ 70.8 µM) and the MIC [17] was at most 0.125 µg/mL. It also gave an MIC [23] of 64 µg/mL (≈ 142 µM), an MIC [18] of 32 µg/mL (≈ 70.8 µM) and an MIC [19] of 4 µg/mL (≈ 8.84 µM). For the same molecule, the MIC [25] was 32 µg/mL (≈ 70.8 µM).

Work on `C[C@@H](OCC#Cc1ccc(Cl)cc1)[C@](O)(Cn1cncn1)c1ccc(F)cc1F` yielded an MIC [12] of at most 0.125 µg/mL, an MIC [13] of 16 µg/mL (≈ 38.3 µM) and an MIC [20] of 32 µg/mL (≈ 76.6 µM). The MIC [21] was 8 µg/mL (≈ 19.1 µM), the MIC [14] was 1 µg/mL (≈ 2.39 µM) and the MIC [22] was 16 µg/mL (≈ 38.3 µM). For the same molecule, the MIC [15] was 4 µg/mL (≈ 9.57 µM), the MIC [16] was 16 µg/mL (≈ 38.3 µM) and the MIC [17] was at most 0.125 µg/mL. For the same molecule, the MIC [23] was 32 µg/mL (≈ 76.6 µM), the Ratio [24] was “>=8” and the MIC [18] was at most 0.125 µg/mL. The MIC [19] was 0.5 µg/mL (≈ 1.2 µM) and the MIC [25] was 4 µg/mL (≈ 9.57 µM).

Molecule `C[C@@H](OCC#Cc1ccccc1)[C@](O)(Cn1cncn1)c1ccc(F)cc1F` has an MIC [12] of at most 0.125 µg/mL, an MIC [13] of 8 µg/mL (≈ 20.9 µM) and an MIC [14] of 0.5 µg/mL (≈ 1.3 µM). It also gave an MIC [15] of 4 µg/mL (≈ 10.4 µM), an MIC [16] of 8 µg/mL (≈ 20.9 µM) and an MIC [17] of at most 0.125 µg/mL. The Ratio [24] was “>=8”, the MIC [18] was 32 µg/mL (≈ 83.5 µM) and the MIC [19] was 0.5 µg/mL (≈ 1.3 µM).
